A word on the melting point: it is the temperature of the solid-liquid transition.

Data on 87 molecules can be found in a melting point compilation (Tetko et al.; mined from patent text by program, amines drawn as free bases though some values may be those of a salt).

`CC(C)Cn1c(CO)c(-c2ccccc2F)c2cc(OCc3ccccc3)ccc2c1=O`: the melting point was in the range of 191 to 192 °C.
Turning to `CCN(CC)C(=O)c1cc(O)c(O)c([N+](=O)[O-])c1`, the melting point was 145 to 146 °C.
For `O=C(O)CCNC(=O)[C@H](Cc1ccc(-c2ccccc2)cc1)NCP(=O)(Oc1ccccc1)Oc1ccccc1` the value was 102 °C.
Turning to `COC(=O)c1sc(C(=O)OC)c(-c2ccoc2)c1O`, the melting point came to 102 °C.
In the case of `C#CCN(c1ccc(C(=O)OC(C)(C)C)cc1)C1CCc2cc3nc(C)[nH]c(=O)c3cc21` (racemic), the melting point was in the range of 244 to 246 °C.
As to `COCCc1nc2c(N)nc3cc(-c4ccccc4)ccc3c2n1CCCCNS(C)(=O)=O`, the melting point was in the range of 201 to 202 °C.
Turning to `CSC(=NC(=O)N(C)C)N(C)C(=O)Nc1ccccc1`, the melting point fell in the range of 74 to 77 °C.
`O=C(CN1CC(O)CC1=O)Oc1ccc(Cl)c(Cl)c1Cl` (configuration not stated) had a melting point of 84 to 86 °C.
As for `COc1ccc(C2N3CCSC3=NC2(O)c2ccc(F)cc2)cc1` (configuration not stated), the melting point lay within 150 to 151 °C.
For `Cc1ccc(C2COc3cc(O)ccc3C2c2ccc(OCCN3CCCC3)cc2)cc1` (configuration not stated) the value was 161 to 165 °C.
Under `Cn1c(C(F)(F)F)nn(-c2ccc(Cl)c(C(=O)O)c2)c1=O` stands 223 °C.
As to `CCOC(=O)c1cnc2c(NC(=O)c3c(Cl)cccc3Cl)cccc2c1SCC(=O)O`, the melting point lay within 174 to 175 °C.
Molecule `CCOC(=O)C1CCCCCCCC(=O)N1` (configuration not stated) yielded a melting point of 101 to 103 °C.
`Cc1ccc(NC(=O)NCc2cccc3c2C(=O)N(C2CCC(=O)NC2=O)C3=O)cc1C` (configuration not stated) showed a melting point of 222 to 224 °C.
`Cc1cccc(Cl)c1C(=O)N[C@@H](Cc1ccc(-c2c(C)n(C)c(=O)n(C)c2=O)cc1)C(=O)O` returned a melting point of 238 to 240 °C.
The molecule `CCN(CC)C(=O)COc1nc(C(F)(F)F)ns1` had a melting point of 60 °C.
The molecule `CN(C(=O)c1cccs1)c1cccc2cc(-c3nccs3)[nH]c12` registered a melting point of 250 °C.
The molecule `O=C(O)C1Cc2cc(O)c(O)cc2CN1` (configuration not stated) gave a melting point of 288 °C.
Molecule `Cc1cc2nc3ccc(C(=O)O)cn3c(=O)c2s1` returned a melting point of 338 to 340 °C.
For the molecule `CN1CCN(c2cc(C(=O)Nc3ccc4c(c3)-c3c(c(C(N)=O)nn3-c3ccc(F)cc3)CC4)ccn2)CC1`, the melting point is 277 to 279 °C.
In turn, `COc1ccc(Br)c(C(=O)N2CCN(S(=O)(=O)c3ccc(Cl)cc3)CC2)c1` displayed a melting point of 188 °C.
Turning to `CCOC(=O)NC(C(=O)OC)C(c1ccccc1)c1ccccc1` (configuration not stated), the melting point lay in the range of 107 to 109 °C.
For `CCCCCCCCCCCCCCCCCC(=O)OCCN1C(C)(C)CCCC1(C)C` the value was 30 °C; for `CC(C)(C)OC(=O)n1c(C(=O)O)cc2ccccc21`, 117 °C.
For `COC1(c2cc(F)cc(Sc3ccc4c(c3)n(C)c(=O)n4C)c2)CCOCC1` the value was 128 to 130 °C.
As to `CCC(O)(CC(=O)OC)c1cc2n(c(=O)c1COC)Cc1cc3ccccc3nc1-2` (configuration not stated), the melting point was 163 to 166 °C.
For `O=C(c1ccc(F)cc1)c1c(OCc2ccccc2)c(=O)ccn1CCO`, the melting point fell in the range of 182 to 183 °C.
The molecule `Cc1cc(N2CCN(CCc3ccc(NS(C)(=O)=O)cc3)CC2)ccc1NS(C)(=O)=O` gave a melting point of 235 to 237 °C.
`COC(=O)c1ccc(CN(C(=O)OC(C)(C)C)c2ccc(C3CCCCC3)cc2)cc1`: the melting point is 99.5 to 101 °C.
The molecule `O=C(O)CCC(=NOCc1ccc(OCc2cn3c(Cl)cccc3n2)cc1)c1ccccc1` had a melting point of 160 to 161 °C.
Turning to `Cn1cncc1S(=O)(=O)O`, the melting point fell in the range of 286 to 287 °C.
In the case of `COCCOc1ccc(/C=C/C(=O)O)c(NC(=O)c2ccc(Cl)cc2Cl)c1`, the melting point lay in the range of 243 to 245 °C.
`Cc1cccc(-n2nc(Sc3ccc(Cl)cc3)c(C)c(C#N)c2=O)c1` returned a melting point of 163 to 165 °C.
In turn, `ClC1Cc2cc(Br)ccc2Sc2ccccc21` (configuration not stated) yielded a melting point of 122 to 124 °C.
Molecule `Cc1cccc(OCc2cccc(OCc3ccc4ccccc4n3)c2)c1C(=O)O` came in with a melting point of 154 to 156 °C.
For `C[C@@H]1CCC[C@H](C)N1Cc1ccc2cc(NC(=O)c3ccc(-c4ccc(Cl)cc4)nc3)ccc2c1` the value was 229 to 230 °C; for `COc1cc(C2c3cc4c(cc3C(NC3=CC(=O)N(CCCCCC(=O)O)C3=O)C3COC(=O)C23)OCO4)cc(OC)c1O` (configuration not stated), 150 to 152 °C; for `O=C(Nc1ccc(Oc2ccnc(NCCN3CCCC3)n2)c2ccccc12)c1cc(F)cc(N2CCCCC2)c1`, 92 to 94 °C.
In turn, `CCOC(=O)C(NC(C)=O)C(O)c1ccc(C=Cc2csc3ccccc23)s1` (configuration not stated) showed a melting point of 157 to 159 °C.
Consider `N#CCCc1cccc2ccn(Cc3cccc(/C=C/c4ccc5ccc(Cl)cc5n4)c3)c12`, for which the melting point was 151 °C.
The molecule `CCOC(=O)C(C#N)=C(Nc1ccc(N(CC)CC)cc1)SC` came in with a melting point of 100 °C.
As to `CCOC(=O)c1cc2cc(C3=NNC(=O)CC3)ccc2[nH]1`, the melting point fell in the range of 235 to 237 °C.
`CC(C)(C)OC(=O)N1CCC(c2ccc(Nc3nc4c(-c5cnn(-c6ccc(F)cc6)c5)cccn4n3)cc2)CC1`: the melting point lay within 176 to 178 °C.
Regarding `CC1(C)C(=O)N(c2ccc(C#N)c(C(F)(F)F)c2)C(=O)N1C(=O)c1ccccc1`, the melting point is 179 to 180 °C.
Under `CN(CC1OCCO1)c1nccc(Oc2ccc(NC(=O)c3cc(F)cc(N4CCOCC4)c3)c3ccccc23)n1` stands 111 to 112 °C.
`Cc1cccc2cc(C(=O)Cn3ccnc3)ccc12` displayed a melting point of 264 °C.
Under `CC(COc1ccc2c(c1)C(=O)NC(C)(C)O2)NCc1ccccc1` (configuration not stated) stands 127 to 129 °C; under `O=C(NC1CCS(=O)(=O)CC1)NC12CC3CC(CC(C3)C1)C2`, 244 to 246 °C.
For `CC(C)Nc1ccc(-c2ncc(C(F)(F)F)cc2Cl)cc1[N+](=O)[O-]` the value was 107 to 109 °C.
The molecule `CSc1nc(-c2ccc(Cl)cc2)nc(-c2ccccn2)n1` yielded a melting point of 152 °C.
Regarding `CCS(=O)(=O)Nc1cc(N=c2sc(=S)n3n2CCCC3)c(F)cc1Cl`, the melting point was in the range of 146 to 148 °C.
For `COC(=O)CCC(=O)Oc1c(C)c(C)c2c(c1C)SC(C)O2` (configuration not stated) the value was 73 to 75 °C; for `CC(C)Cn1c(C(C)(C)O)nc2c(N)nc3ccccc3c21`, 214 to 217 °C.
The molecule `O=C(NCc1ccc(Cl)cc1)c1cn2c(CCCO)cc3cc(CN4CCOCC4)cc(c1=O)c32` returned a melting point of 171 to 174 °C.
As to `Fc1cc2c(cc1CN1CCOCC1)Cc1c(-c3ccsc3)n[nH]c1-2`, the melting point amounted to 222 °C.
Molecule `Cc1ccc(-n2cccc2-c2ccc(S(C)(=O)=O)cc2)cc1` came in with a melting point of 112 to 114 °C.
`Cc1cccc2c1N(CC(=O)c1cccc([N+](=O)[O-])c1)C(=O)C(NC(=O)Nc1cccc(-c3nnn[nH]3)c1)N=C2c1ccccc1F` (configuration not stated) yielded a melting point of 194 to 198 °C.
`CCOC(=O)c1nc(OC)cc(OC)n1` had a melting point of 54 to 55 °C.
For the molecule `O=C(O)C(=O)c1ccc(OCCOc2cccc(F)c2)cc1`, the melting point was in the range of 108 to 109 °C.
Consider `Nc1ccc(C(O)C(CO)N2CCC(Cc3ccccc3)CC2)cc1` (configuration not stated), for which the melting point fell in the range of 62 to 68 °C.
For the molecule `C=C1C(=N)NC(=O)N1Cc1ccccc1`, the melting point amounted to 225 °C.
For `CNC(=O)NS(=O)(=O)c1cc(CCNC(=O)/C=C/c2cccs2)ccc1OCCOC`, the melting point stood at 99 °C.
The molecule `CN(Cc1ccc(Cl)cc1)S(=O)(=O)c1cn(S(=O)(=O)N(C)C)c(C#N)n1` came in with a melting point of 162 to 163 °C.
On to `CCCc1cc2cc(OCC(=O)O)c(Cl)c(Cl)c2s1`, for which the melting point lay in the range of 165 to 166 °C.
`COc1cc2nc(N3CCN(C(=O)C4CC4)CC3)nc(N)c2cc1OC` showed a melting point of 284 to 286 °C.
Under `Cc1ccc(N2CN(C)CNC2=S)c(C)c1` stands 140 to 143 °C.
As for `Cn1nnc(-c2ccc(C=O)cc2)n1`, the melting point was 137 to 139 °C.
Turning to `CCOC(=O)c1nn(-c2cccc(Cl)c2)c(=O)c2c1c1ccc(Cl)cc1n2C`, the melting point was in the range of 236 to 238 °C.
Consider `CCCN1C=CC=C2C(=O)NC(c3ccccc3OCC)N=C21` (configuration not stated), for which the melting point fell in the range of 134 to 137 °C.
Turning to `O=C1C(=CO)C(c2ccccc2[N+](=O)[O-])=NN1c1ccc(Cl)cc1`, the melting point was 155 to 157 °C.
`CCc1nc2c(OCc3ccc(OC)cc3)cccc2[nH]1` had a melting point of 73.8 to 77.9 °C.
`NC(=O)c1coc2ccccc2c1=O`: the melting point lay in the range of 220 to 225 °C.
For `CC1(C(=O)c2c[nH]c3ncc(-c4cccc(CCCO)c4)nc23)CCCCC1` the value was 80 to 83 °C; for `COc1ccc(-n2c(-c3ccc([N+](=O)[O-])cc3)nnc2C(C)O)cc1` (configuration not stated), 140 °C.
`CN(C)CC(=O)NCc1ccc(-c2cc3c(Nc4ccc(F)c(Cl)c4)ncnc3[nH]2)cc1` came in with a melting point of 320 to 325 °C.
Under `COC(=O)c1c([N+](=O)[O-])cccc1[N+](=O)[O-]` stands 150 to 152 °C; under `Nc1ccc(NC(=O)c2ccc(N)cc2O)cc1`, 235 to 238 °C.
`O=C(O)COc1ccc2c(c1)-c1nc(SCC(c3ccccc3)c3ccccc3)sc1CC2` had a melting point of 165 to 167 °C.
For `CCS(=O)C1(Cl)CC2C(Cc3ccccc3)C(=O)N2C1C(=O)OCc1ccccc1` (configuration not stated) the value was 118 to 123 °C; for `C#CC1(O)C(CO)OC(n2ccc(N)nc2=O)C1O` (configuration not stated), 233 to 235 °C.
For `Nc1cc2c(cc1[N+](=O)[O-])CCCCC2` the value was 137 to 139 °C; for `NC(=S)Nc1cc(-c2ccccc2)nn1-c1ccccc1`, 198 to 201 °C.
Under `CCCc1ccc2c(c1CCC(=O)O)CCC(NS(=O)(=O)c1ccc(Cl)cc1)C2` (configuration not stated) stands 165 to 167 °C; under `O=C1C=CC(O)(c2cccs2)C=C1`, 103 °C; under `O=S(=O)(c1ccccc1)C(F)(F)C(O)c1ccco1` (configuration not stated), 72 to 74 °C.
With `CCCCn1nc(-c2ccccc2)c(CC(=O)O)c1-c1ccccc1`, the melting point was in the range of 97 to 98 °C.
`COc1ccc(C(C)N(C)CCCOc2ccc(S(=O)(=O)c3c(C(C)C)n(C)c4ccccc34)cc2)cc1OC` (configuration not stated) showed a melting point of 96 °C.
